In patent US9315847B2, “Automated transient image cytometry” (priority 2009, dated 2016):

Test system: NRVMs
Test: Toxicity of the nuclear label to NRVMs during dye loading
Type: cell-based, rat
Settings: 200 ng/ml in loading solution, 25 minutes
Experimental: Sensitivity to intracellular calcium kinetics is a desirable goal for automated calcium transient image cytometry because it is desirable to distinguish healthy contractile ESCMs from background non-contractile stem cells. […] The cells were maintained 48 to 72 hrs prior to scanning. On the day of scanning, the cells were incubated with a 3 μM solution of the acetyoxymethylester form of an intracellular calcium indicator (either Fluo-4 AM or Fluo-3 AM) in the base media for 25 minutes. The plasma membrane permeable to the acetoxymethylester forms of Fluo-3 and Fluo-4, which are modified intracellularly by esterases to an impermeable form. The loading solution was also supplemented with 200 ng/ml Hoechst 33342 to label DNA within the nuclei. This concentration of Hoechst provides adequate label of the nuclei and was non-toxic under these conditions. Thus, the labeling procedure introduced a green-fluorescence channel fluorescent calcium indicator into the cytoplasm of the NRVMs (Fluo-4) and a blue-fluorescence channel nuclear stain (Hoechst). The nuclear channel was used for autofocus at each well; additionally, images obtained of the nuclei provided information regarding cellular position that was helpful in assigning boundaries between cells in the segmentation procedure applied to the green-channel images. […]

## CCOc1ccc(-c2nc3ccc(-c4nc5ccc(N6CCN(C)CC6)cc5[nH]4)cc3[nH]2)cc1 [Hoechst 33342]
  toxicity of the nuclear label under loading conditions: non-toxic
